From PubChem BioAssay AID248 (DTP/NCI, 2004)
“And” between values parts separate entries of the source, which are not always exact repeats. Equal values may be shown once. Toxic doses and inconclusive results are not listed.

Test system: L1210 leukemia ip in BDF1 mice, survival T/C
Test: NCI In Vivo Anticancer Drug Screen. Data for tumor model L1210 Leukemia (intraperitoneal) in B6D2F1 (BDF1) mice
Conditions: endpoint: mean survival time, higher = longer survival
Method in brief: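 Value reflects the ratio of survival in compound-treated mice to survival in vehicle-treated controls, with both groups carrying the same transplanted tumor.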

[1] = dose: 100.0 mg/kg/injection, schedule: Q04DX002 (ip), vehicle: Klucel (hydroxypropylcellulose) (HPC)
[2] = dose: 200.0 mg/kg/injection, schedule: Q04DX002 (ip), vehicle: Klucel (hydroxypropylcellulose) (HPC)
[3] = dose: 400.0 mg/kg/injection, schedule: Q04DX002 (ip), vehicle: Klucel (hydroxypropylcellulose) (HPC)
[4] = dose: 100.0 mg/kg/injection, schedule: Q01DX009 (ip), vehicle: Klucel (hydroxypropylcellulose) (HPC)
[5] = dose: 200.0 mg/kg/injection, schedule: Q01DX009 (ip), vehicle: Klucel (hydroxypropylcellulose) (HPC)
[6] = dose: 400.0 mg/kg/injection, schedule: Q01DX009 (ip), vehicle: Klucel (hydroxypropylcellulose) (HPC)
[7] = dose: 100.0 mg/kg/injection, schedule: Q04DX003 (ip), vehicle: Klucel (hydroxypropylcellulose) (HPC)
[8] = dose: 200.0 mg/kg/injection, schedule: Q04DX003 (ip), vehicle: Klucel (hydroxypropylcellulose) (HPC)
[9] = dose: 400.0 mg/kg/injection, schedule: Q04DX003 (ip), vehicle: Klucel (hydroxypropylcellulose) (HPC)
[10] = dose: 100.0 mg/kg/injection, schedule: Q04DX003 (ip), vehicle: saline with Tween-80
[11] = dose: 200.0 mg/kg/injection, schedule: Q04DX003 (ip), vehicle: saline with Tween-80
[12] = dose: 400.0 mg/kg/injection, schedule: Q04DX003 (ip), vehicle: saline with Tween-80
[13] = dose: 100.0 mg/kg/injection, schedule: Q01DX001 (ip), vehicle: saline
[14] = dose: 200.0 mg/kg/injection, schedule: Q01DX001 (ip), vehicle: saline
[15] = dose: 400.0 mg/kg/injection, schedule: Q01DX001 (ip), vehicle: saline
[16] = dose: 100.0 mg/kg/injection, schedule: Q04DX003 (ip), vehicle: saline
[17] = dose: 200.0 mg/kg/injection, schedule: Q04DX003 (ip), vehicle: saline

With `Cc1ccc(C)c(NC(=O)c2ccc([N+](=O)[O-])cc2)c1` the T/C [1] was 100 % of control, the T/C [2] was 89 % of control and the T/C [3] was 92 % of control.
In the case of `CS(=O)(=O)Cc1ccccc1`, the T/C [4] is reported as 101 % of control, the T/C [1] is reported as 86 % of control and the T/C [5] is reported as 101 % of control. For the same compound, the T/C [2] was 101 % of control, the T/C [6] was 86 % of control and the T/C [3] was 90 % of control.
In the case of `C[NH-].C[NH-].C[NH-].C[NH-].[Cl][Rh][Cl]`, the T/C [4] is reported as 97 % of control, the T/C [7] is reported as 86 % of control and the T/C [8] is reported as 94 % of control. For the same compound, the T/C [9] was 92 % of control.
`CCc1noc(CC)c1CC1=C2CCC3(C)CCC(C)(C)CC3C2(C)CCC1=O` (configuration not stated) was tested, and the T/C (dose: 100.0 mg/kg/injection, schedule: Q01DX001 (ip), vehicle: other) was 96 % of control, the T/C (dose: 100.0 mg/kg/injection, schedule: Q01DX009 (ip), vehicle: saline with Tween-80) was 93 % of control and the T/C (dose: 200.0 mg/kg/injection, schedule: Q01DX001 (ip), vehicle: other) was 94 % of control. The T/C (dose: 200.0 mg/kg/injection, schedule: Q01DX009 (ip), vehicle: saline with Tween-80) was 91 % of control, the T/C (dose: 400.0 mg/kg/injection, schedule: Q01DX001 (ip), vehicle: other) was 97 % of control and the T/C (dose: 400.0 mg/kg/injection, schedule: Q01DX009 (ip), vehicle: saline with Tween-80) was 90 % of control.
`O=C(N/N=C/c1ccc(Cl)cc1)c1ccc(Cl)cc1` was tested, and the T/C [10] was 105 % of control, the T/C [11] was 98 % of control and the T/C [12] was 91 % of control.
For `COc1cc(CCCC(=O)O)c(OC)c(C)c1C`, the T/C (dose: 100.0 mg/kg/injection, schedule: Q01DX001 (ip), vehicle: Klucel (hydroxypropylcellulose) (HPC)) was 93 % of control, the T/C [4] was 97 % of control and the T/C (dose: 200.0 mg/kg/injection, schedule: Q01DX001 (ip), vehicle: Klucel (hydroxypropylcellulose) (HPC)) was 98 % of control. The T/C [5] was 103 % of control, the T/C (dose: 400.0 mg/kg/injection, schedule: Q01DX001 (ip), vehicle: Klucel (hydroxypropylcellulose) (HPC)) was 95 % of control and the T/C [6] was 101 % of control.
For `C1CC[N-]CC1.Oc1ccccc1C=NCCN=Cc1ccccc1O.[Co]`, the T/C (dose: 6.25 mg/kg/injection, schedule: Q04DX002 (ip), vehicle: saline with Tween-80) was 90 % of control.
With `CCOC(Nc1ccc(Cl)cc1Cl)C(=O)c1ccccc1` (configuration not stated) the T/C [13] was 97 % of control, the T/C [14] was 101 % of control and the T/C [15] was 101 % of control.
In the case of `C#CCOC1CCCCO1` (configuration not stated), the T/C [16] is reported as 104 % of control.
For `Cn1c(=O)c2ccccc2c2cc(Br)ccc21`, the T/C (dose: 100.0 mg/kg/injection, schedule: Q04DX003 (ip), vehicle: other) was 90 % of control, the T/C (dose: 200.0 mg/kg/injection, schedule: Q04DX003 (ip), vehicle: other) was 92 % of control and the T/C (dose: 400.0 mg/kg/injection, schedule: Q04DX003 (ip), vehicle: other) was 95 % of control.
For `COc1ccc(NC(=S)Nc2ccc(OC)cc2)cc1`, the T/C [4] was 101 % of control, the T/C [7] was 103 % of control and the T/C [5] was 105 % of control. For the same compound, the T/C [8] was 103 % of control, the T/C [6] was 92 % of control and the T/C [9] was 94 % of control.
`CC(C)(O)C(Cl)(Cl)Cl` was tested, and the T/C [7] was 101 % of control, the T/C [16] was 98 % of control and the T/C [8] was 95 % of control. The T/C [17] was 100 % of control.
For `CCP(=O)(CC)OCCCCOP(=O)(CC)CC`, the T/C (dose: 75.0 mg/kg/injection, schedule: Q01DX Z (ip), vehicle: saline) was 104 % of control and the T/C (dose: 100.0 mg/kg/injection, schedule: Q01DX Z (ip), vehicle: saline) was 98 % of control.
With `CC1(C)OCC(C2OC(C)(C)OC2C(CO)Nc2ccc([N+](=O)[O-])cc2[N+](=O)[O-])O1` (configuration not stated) the T/C [13] was 98 % of control, the T/C [14] was 93 % of control and the T/C [15] was 93 % of control.
In the case of `O=C(C[N+]12CCC(O)C1C(CO)CC2)c1ccc(Br)cc1` (configuration not stated), the T/C [16] is reported as 96 % of control and the T/C [17] is reported as 89 % of control.
`O=C1C=CCC2c3nc4ccccc4cc3CN12` (configuration not stated) was tested, and the T/C (dose: 37.5 mg/kg/injection, schedule: Q04DX003 (ip), vehicle: saline) was 95 % of control, the T/C (dose: 75.0 mg/kg/injection, schedule: Q04DX003 (ip), vehicle: saline) was 93 % of control and the T/C (dose: 150.0 mg/kg/injection, schedule: Q04DX003 (ip), vehicle: saline) was 95 % of control.
`C=COC(=O)N(C)C` was tested, and the T/C (dose: 50.0 mg/kg/injection, schedule: Q01DX009 (ip), vehicle: saline) was 89 % of control, the T/C (dose: 50.0 mg/kg/injection, schedule: Q04DX003 (ip), vehicle: acetone) was 98 % of control and the T/C [13] was 96 % of control. For the same compound, the T/C (dose: 100.0 mg/kg/injection, schedule: Q01DX009 (ip), vehicle: saline) was 94 % of control, the T/C (dose: 100.0 mg/kg/injection, schedule: Q04DX003 (ip), vehicle: acetone) was 96 % of control and the T/C [14] was 107 % of control. For the same compound, the T/C (dose: 200.0 mg/kg/injection, schedule: Q01DX009 (ip), vehicle: saline) was 95 % of control and the T/C (dose: 200.0 mg/kg/injection, schedule: Q04DX003 (ip), vehicle: acetone) was 95 % of control.
In the case of `Cc1ccc(C[n+]2cccc(NC(=O)COc3ccc(Cl)c(Cl)c3)c2)cc1`, the T/C [10] is reported as 95 % of control, the T/C [11] is reported as 93 % of control and the T/C [12] is reported as 98 % of control.
`CC(C)C12CCC(=O)C=C1CCCC2OC(=O)c1ccccc1C(=O)O` (configuration not stated) was tested, and the T/C [10] was 101 % of control and the T/C [11] was 100 % of control.
In the case of `CS(=O)(=O)OCCN(CCOS(C)(=O)=O)c1cccc(C(F)(F)F)c1`, the T/C (dose: 5.0 mg/kg/injection, schedule: Q01DX001 (ip), vehicle: saline) is reported as 96 % of control, the T/C (dose: 10.0 mg/kg/injection, schedule: Q01DX001 (ip), vehicle: saline) is reported as 100 % of control and the T/C (dose: 11.0 mg/kg/injection, schedule: Q01DX015 (ip), vehicle: saline) is reported as 101 % of control. For the same compound, the T/C (dose: 17.0 mg/kg/injection, schedule: Q01DX015 (ip), vehicle: saline) was 110 % of control, the T/C (dose: 20.0 mg/kg/injection, schedule: Q01DX001 (ip), vehicle: saline) was 102 % of control and the T/C (dose: 25.0 mg/kg/injection, schedule: Q01DX015 (ip), vehicle: saline) was 116 % of control. The T/C (dose: 50.0 mg/kg/injection, schedule: Q01DX001 (ip), vehicle: saline) was 124 % of control, the T/C [13] was 124 % of control and the T/C [14] was 120 % of control. The T/C [15] was 86 % of control.
For `Cc1ccc(NC(=O)N(CCCl)N=O)cc1C`, the T/C (dose: 0.5 mg/kg/injection, schedule: Q01DX009 (ip), vehicle: carboxymethylcellulose (CMC)) was 114 % of control, the T/C (dose: 1.0 mg/kg/injection, schedule: Q01DX009 (ip), vehicle: carboxymethylcellulose (CMC)) was 119 % of control and the T/C (dose: 1.5 mg/kg/injection, schedule: Q01DX001 (ip), vehicle: carboxymethylcellulose (CMC)) was 114 % of control. For the same compound, the T/C (dose: 2.0 mg/kg/injection, schedule: Q01DX009 (ip), vehicle: carboxymethylcellulose (CMC)) was 103 % of control, the T/C (dose: 4.0 mg/kg/injection, schedule: Q01DX009 (ip), vehicle: carboxymethylcellulose (CMC)) was 158 % of control and the T/C (dose: 6.0 mg/kg/injection, schedule: Q01DX001 (ip), vehicle: carboxymethylcellulose (CMC)) was 119 % of control. For the same compound, the T/C (dose: 8.8 mg/kg/injection, schedule: Q01DX009 (ip), vehicle: carboxymethylcellulose (CMC)) was 249 % of control, the T/C (dose: 13.3 mg/kg/injection, schedule: Q01DX009 (ip), vehicle: carboxymethylcellulose (CMC)) was 159 % of control and the T/C (dose: 19.0 mg/kg/injection, schedule: Q01DX001 (ip), vehicle: carboxymethylcellulose (CMC)) was 173 % of control. For the same compound, the T/C (dose: 29.0 mg/kg/injection, schedule: Q01DX001 (ip), vehicle: carboxymethylcellulose (CMC)) was 214 % of control, the T/C (dose: 30.0 mg/kg/injection, schedule: Q01DX009 (ip), vehicle: carboxymethylcellulose (CMC)) was 103 % of control and the T/C (dose: 44.0 mg/kg/injection, schedule: Q01DX001 (ip), vehicle: carboxymethylcellulose (CMC)) was 210 % of control and 298 % of control. The T/C (dose: 66.0 mg/kg/injection, schedule: Q01DX001 (ip), vehicle: carboxymethylcellulose (CMC)) was 257 % of control and the T/C (dose: 100.0 mg/kg/injection, schedule: Q01DX001 (ip), vehicle: carboxymethylcellulose (CMC)) was 218 % of control and 263 % of control.
In the case of `Cc1nccc2cc3c(cc12)c1ccccc1n3C`, the T/C (dose: 37.5 mg/kg/injection, schedule: Q04DX003 (ip), vehicle: Klucel (hydroxypropylcellulose) (HPC)) is reported as 105 % of control, the T/C (dose: 75.0 mg/kg/injection, schedule: Q04DX003 (ip), vehicle: Klucel (hydroxypropylcellulose) (HPC)) is reported as 111 % of control and the T/C (dose: 150.0 mg/kg/injection, schedule: Q04DX003 (ip), vehicle: Klucel (hydroxypropylcellulose) (HPC)) is reported as 105 % of control. For the same compound, the T/C (dose: 300.0 mg/kg/injection, schedule: Q04DX003 (ip), vehicle: Klucel (hydroxypropylcellulose) (HPC)) was 95 % of control.
